Series [1] is described as follows: Solubility of cellobiose when combined with xylo-oligosaccharides. The series is classed as physicochemical. To be noted: 20-320 mg/mL, vortexed 30 seconds, in the presence of half or the same concentration of xylo-oligosaccharides (e.g., at 80 mg/mL). As for the experimental part: 1. Solutions/suspensions of cellobiose at concentrations from 20-320 mg/mL were vortexed for 30 seconds alone (FIG. 4, panel a), in the presence of half the concentration of xylo-oligosaccharides (FIG. 4, panel b), or the same concentration of xylo-oligosaccharides (FIG. 4, panel c).

The nature of series [2]: Hygroscopicity of oligosaccharide powder at 25° C. in 100% humidity. Format: physicochemical. The note with it: 5 g, 10 hours at 25° C. in 100% humidity. The source says:
The compositions are to be used in a wide range of foodstuff, cosmetic, or nutraceutical applications, therefore the required hygroscopicity for each application can vary. The aim of this example was to test if hygroscopicity can be adapted by altering the oligosaccharide compositions. • 1. 5 g of oligosaccharide compositions (cellobiose, 4:1 cellobiose:xylo-oligosaccharide, 3:2 cellobiose:xylo-oligosaccharide, 2:3 cellobiose:xylo-oligosaccharide, 1:4 cellobiose:xylo-oligosaccharide, xylo-oligosaccharide) were incubated for 10 hours at 25° C. in 100% humidity. • 2.

The structures appear in SMILES notation.

In the case of `O=C[C@H](O)[C@@H](O)[C@H](O[C@@H]1O[C@H](CO)[C@@H](O)[C@H](O)[C@H]1O)[C@H](O)CO` [cellobiose], the dissolution of cellobiose entry in series [1] was “enabled more readily at higher concentrations”. Further, in series [2], the water uptake result is recorded as “effectively resisted water uptake”.

The record behind these values is patent publication US11596165B2, “Compositions, their use, and methods for their formation” (Cambridge Glycoscience Ltd, priority 2018, dated 2023).
